The values below come from patent US20050096360A1, “Inhibitors of semicarbazide-sensitive amine oxidase (SSAO) and VAP-1 mediated adhesion useful for treatment of diseases” (priority 2003, published 2005).

SMILES strings stand for the structures. Counter-ions that a name gives are not always drawn. Like-named read-outs stand apart in the source and are kept apart here.

The target in one series is T1, recombinant human MAO-B (Homo sapiens, UniProt P27338).
T1 construct: purchased BD Biosciences (MA, USA)
T1 sequence (P27338 1-520): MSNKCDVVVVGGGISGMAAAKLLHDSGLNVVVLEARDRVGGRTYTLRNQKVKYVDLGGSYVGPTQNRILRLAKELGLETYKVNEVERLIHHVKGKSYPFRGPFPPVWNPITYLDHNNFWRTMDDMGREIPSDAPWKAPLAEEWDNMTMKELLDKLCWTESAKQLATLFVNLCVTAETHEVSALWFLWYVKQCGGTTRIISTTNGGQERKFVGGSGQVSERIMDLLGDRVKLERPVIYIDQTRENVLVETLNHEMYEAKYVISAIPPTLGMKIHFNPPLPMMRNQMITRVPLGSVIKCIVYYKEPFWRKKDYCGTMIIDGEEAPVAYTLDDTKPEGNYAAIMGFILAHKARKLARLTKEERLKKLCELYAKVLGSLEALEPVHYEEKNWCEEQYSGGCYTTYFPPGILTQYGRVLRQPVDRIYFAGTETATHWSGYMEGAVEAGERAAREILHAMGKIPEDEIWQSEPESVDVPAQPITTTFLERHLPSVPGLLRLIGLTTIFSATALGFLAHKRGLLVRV
The series can be described thus: Inhibition of MAO-B activity, colorimetric. It counts as biochemical. The following applies: for Specificity for SSAO vs. MAO-B: ratio IC50 MAO-B to IC50 SSAO. As to the method: (§1) The specificity of the different SSAO inhibitors was tested by determining their ability to inhibit MAO-A and MAO-B activities in vitro. Recombinant human MAO-A and human MAO-B enzymes were obtained from BD Biosciences (MA, USA). […] A pre-determined amount of inhibitor diluted in 0.2 M potassium phosphate buffer, pH 7.6, was added to each well, if required. […] Controls lacked inhibitor. The following agents were then added to a final reaction volume of 200 μl in 0.2 M potassium phosphate buffer, pH 7.6: 0.04 mg/ml of MAO-A or 0.07 mg/ml MAO-B enzyme, 15 μl of 10 mM tyramine substrate (for MAO-A), or 15 μl 100 mM benzylamine substrate (for MAO-B), and 50 μl of freshly made chromogenic solution (as above). The plates were incubated for 60 min at 37° C. The increase in absorbance, reflecting MAO activity, was measured at 490 nm using microplate spectrophotometer (Power Wave 40, Bio-Tek Inst.). Inhibition was presented as percent inhibition compared to control after correcting for background absorbance and IC50 values calculated using GraphPad Prism software.

The next series has as its target T2, recombinant human MAO-A (Homo sapiens, UniProt P21397).
T2 construct: purchased BD Biosciences (MA, USA)
T2 sequence (P21397 1-527): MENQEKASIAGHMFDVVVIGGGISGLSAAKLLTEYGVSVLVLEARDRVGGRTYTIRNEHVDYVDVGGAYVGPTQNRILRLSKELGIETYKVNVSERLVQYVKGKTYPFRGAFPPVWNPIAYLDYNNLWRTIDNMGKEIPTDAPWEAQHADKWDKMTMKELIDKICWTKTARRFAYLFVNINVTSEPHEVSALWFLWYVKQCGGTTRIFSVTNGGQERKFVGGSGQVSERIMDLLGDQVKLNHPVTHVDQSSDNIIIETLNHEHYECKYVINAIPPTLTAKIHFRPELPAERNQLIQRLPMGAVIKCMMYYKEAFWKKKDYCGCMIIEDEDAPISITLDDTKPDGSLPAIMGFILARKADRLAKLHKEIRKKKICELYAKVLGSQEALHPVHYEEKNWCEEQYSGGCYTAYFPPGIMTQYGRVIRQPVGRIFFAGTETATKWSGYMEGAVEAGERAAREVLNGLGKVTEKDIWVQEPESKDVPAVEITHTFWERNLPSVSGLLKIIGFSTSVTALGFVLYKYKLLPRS
The series can be described thus: Inhibition of MAO-A activity, colorimetric. The following applies: for Specificity for SSAO vs. MAO-A: ratio IC50 MAO-A to IC50 SSAO. Type of series: biochemical. As for the experimental part: as §1

For series [1], the target named is T3, SSAO (bovine plasma amine oxidase, PAO) (Bos taurus, UniProt Q29437).
T3 construct: Bovine plasma amine oxidase (PAO) was purchased from Worthington Biochemical; purchased Worthington Biochemical (Lakewood, N.J.)
T3 sequence (Q29437 17-762): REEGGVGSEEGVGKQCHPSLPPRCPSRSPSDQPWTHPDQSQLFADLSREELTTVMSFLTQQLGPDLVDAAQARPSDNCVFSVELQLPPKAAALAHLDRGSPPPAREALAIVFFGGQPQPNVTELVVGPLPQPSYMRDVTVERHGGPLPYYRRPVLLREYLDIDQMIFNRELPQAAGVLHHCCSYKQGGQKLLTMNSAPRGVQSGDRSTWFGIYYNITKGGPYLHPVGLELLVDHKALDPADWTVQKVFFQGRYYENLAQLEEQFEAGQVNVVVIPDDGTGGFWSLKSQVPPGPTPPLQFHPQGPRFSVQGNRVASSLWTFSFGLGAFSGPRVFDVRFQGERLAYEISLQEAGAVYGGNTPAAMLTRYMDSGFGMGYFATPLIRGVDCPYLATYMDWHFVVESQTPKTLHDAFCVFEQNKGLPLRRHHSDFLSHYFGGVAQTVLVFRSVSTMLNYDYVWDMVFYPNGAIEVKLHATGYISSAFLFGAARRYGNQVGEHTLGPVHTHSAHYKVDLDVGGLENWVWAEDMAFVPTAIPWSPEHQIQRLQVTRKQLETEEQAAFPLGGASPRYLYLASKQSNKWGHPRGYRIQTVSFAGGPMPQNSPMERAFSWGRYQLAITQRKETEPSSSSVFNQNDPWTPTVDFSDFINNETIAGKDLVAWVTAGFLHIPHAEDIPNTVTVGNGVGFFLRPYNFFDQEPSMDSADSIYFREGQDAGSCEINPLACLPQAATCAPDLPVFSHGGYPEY
The series can be described thus: In vitro inhibition of SSAO activity, coupled colorimetric method. It counts as biochemical. As to the method: SSAO activity was measured using the coupled colorimetric method essentially as described for monoamine oxidase and related enzymes (Holt A. et al. (1997) Anal. Biochem. 244:384). Bovine plasma amine oxidase (PAO) was purchased from Worthington Biochemical (Lakewood, N.J.) and used as a source of SSAO for activity measurements. The SSAO assay was performed in 96 well microtitre plates as follows. A pre-determined amount of inhibitor diluted in 0.2 M potassium phosphate buffer, pH 7.6, was added to each well, if required. The amount of inhibitor varied in each assay but was generally at a final concentration of between 10 nM and 10 μM. Controls lacked inhibitor. In order to study the effects of potential inhibitors 50 μl of inhibitor solution were preincubated for 30 min at 37° C. with 0.4 mU of PAO in an a total volume of 130 μl of 0.2 M potassium phosphate buffer pH 7.6. Assays were then started by addition of 20 μl 10 mM benzylamine substrate and incubated for 20 min at 37° C. The following reagents were then added to a final reaction volume of 200 μl, 50 μl of freshly made chromogenic solution containing […] vanillic acid (Sigma # V-2250), […] 4-aminoantipyrine (Sigma # A-4328) and 12 U/ml horseradish peroxidase (Sigma # P-8250) in order to cause a change of 0.5 OD A490 per hour. This was within the linear response range of the assay. The plates were incubated for 1 hr at 37° C. and the increase in absorbance, reflecting SSAO activity, was measured at 490 nm using a microplate spectrophotometer (Power Wave 40, Bio-Tek Inst.). Inhibition was presented as percent inhibition compared to control after correcting for background absorbance and IC50 values calculated using GraphPad Prism software.

Series [2] has as its system carrageenan-induced paw edema in Sprague Dawley rats. Kind of series: Carrageenan-induced rat paw edema. Type of series: in vivo. Particulars: 3 mg/kg oral 1 hour prior to carrageenan. As for the experimental part: Female Sprague Dawley rats were used and compounds of the invention were injected i.p. at 100 mg/kg 15 minutes prior to carrageenan exposure. The control group was injected with an equal volume of vehicle (PBS). Edema in the paws was induced as previously described by injecting 50 μl of a 0.5% solution of carrageenan (Type IV Lambda, Sigma) in saline with a 27-G needle s.c. in the right foot pat. (See Whiteley P. E. and Dalrymple S. A. (1998) Models of inflammation: carrageenan-induced paw edema in the rat, in Current Protocols in Pharmacology. Enna S J, Williams M, Ferkany J W, Kenaki T, Porsolt R E and Sullivan J P, eds., pp 5.4.1-5.4.3, John Wiley & Sons, New York) The size of the tested foot of each animal was measured volumetrically, before induction of edema, and at 60, 120, and 180 min after carrageenan induction.
Briefly, SSAO inhibitors (30 mg/kg), indomethacin (3 mg/kg) and PBS were administered orally to rats 1 hour after carrageenan injections.
To investigate further the role of SSAO inhibition in the inflammatory response, studies were carried out to assess the effect of SSAO inhibition on prostaglandin E2 (PGE2) levels. Animals were divided into four therapeutic groups of eight rats each. […] The fourth group received 3 mg/kg of dexamethasone, i.p. 1 hour before paw inflammation. Three hours after carrageenan injection, rats were asphyxiated with CO2 and their hind paws removed. The paws were lacerated with a scalpel, suspended off the bottom of a polypropylene 1.5 ml tube with a micropipette tip and centrifuged to express the inflammatory fluid. The volume collected from each paw was determined and the fluid was analyzed by ELISA for PGE2 production using a commercial kit (R&D Systems, Minneapolis, Minn.) according to the manufacturer's instructions. […] Data were analyzed with GraphPad Prism software (San Diego, Calif.) by Dunnett's test following analysis of variance.

Consider `COc1ccc(C(O)CON)cc1OC` (centres unmarked) [Example 12, 2-Aminooxy-1-(3′,4′-dimethoxyphenyl)-ethanol Hydrochloride], for which, on recombinant human MAO-B, the IC50 (usually the point on the concentration scale where inhibition reaches its midpoint) came to 8200 µM and the “Specificity for SSAO vs. MAO-B” value is 90,000. For the same molecule, at recombinant human MAO-A, the IC50 amounted to 3.6 µM and the “Specificity for SSAO vs. MAO-A” value is listed as 400,000. The IC50 in series [1] worked out at 0.09 µM.

For the molecule `C=C(CNN)c1ccc(Cl)cc1.Cl` [Example 3, N-[2-(4′-chlorophenyl)-allyl]-hydrazine Hydrochloride], the IC50 at recombinant human MAO-B was determined as 24.5 µM; on recombinant human MAO-A (tyramine substrate, no pre-incubation, read-out: MAO-A Inhibitory Activity IC50), 1 µM; in series [1] (30 min preincubation, benzylamine substrate, read-out: SSAO Inhibitory Activity IC50), 0.05 µM. The “Specificity for SSAO vs. MAO-B” value at recombinant human MAO-B amounted to 490. Besides, at recombinant human MAO-A, the “Specificity for SSAO vs. MAO-A” value is on record as 20.

`C=C(C)CNN.Cl` [Example 9, (2-methyl-allyl)hydrazine Hydrochloride]: on recombinant human MAO-B, the IC50 came to 20 µM and the “Specificity for SSAO vs. MAO-B” value was 360. Besides, at recombinant human MAO-A, the IC50 worked out at 350 µM and the “Specificity for SSAO vs. MAO-A” value was 6,300. Also, the 50% inhibitory concentration (IC50) in series [1] stood at 0.055 µM.

On to `C=C(CON)c1ccccc1` [Example 1, O-(2-phenyl-allyl)-hydroxylamine Hydrochloride], for which, at recombinant human MAO-B, the IC50 came to 125 µM and the “Specificity for SSAO vs. MAO-B” value is 4,300. Also, on recombinant human MAO-A, the IC50 came out at 900 µM and the “Specificity for SSAO vs. MAO-A” value was 31,000. The molecule further returned an IC50 in series [1] of 0.029 µM.

On to `NOCC(O)c1ccccc1` (centres unmarked) [Example 11, 2-Aminooxyl-1-phenyl-ethanol Hydrochloride], for which, on recombinant human MAO-B, the IC50 turned out to be 450 µM and the “Specificity for SSAO vs. MAO-B” value is 9000. At recombinant human MAO-A, the IC50 is 250 µM and the “Specificity for SSAO vs. MAO-A” value is listed as 5000. In series [1], this molecule yielded an IC50 of 0.05 µM.

Turning to `C=C(CN(C)NC)c1ccc(Cl)cc1.Cl` [Example 6, N-[2-(4′-Chlorophenyl)-allyl]-N,N′-dimethylhydrazine Hydrochloride], the melting point (in general, the temperature of the solid-liquid transition) lay in the range of 108 to 110 °C. Further, at recombinant human MAO-B, the IC50 worked out at 2.8 µM and the “Specificity for SSAO vs. MAO-B” value is 0.60. On recombinant human MAO-A, the IC50 came out at 300 µM and the “Specificity for SSAO vs. MAO-A” value amounted to 64. This molecule also displayed an IC50 in series [1] of 4.7 µM.

In turn, `C=C(CNNC)c1ccc(F)cc1.Cl` [Example 7, N-[2-(4′-fluorophenyl)-allyl]-N′-methylhydrazine Hydrochloride] showed a melting point of 128 to 129 °C. On recombinant human MAO-B, the IC50 was determined as 210 µM and the “Specificity for SSAO vs. MAO-B” value was 80. For the same molecule, at recombinant human MAO-A, the IC50 was found to be 620 µM and the “Specificity for SSAO vs. MAO-A” value was determined as 230. The molecule also yielded an IC50 in series [1] of 2.61 µM.

In the case of `C=C(CN(C)N)c1ccc(Cl)cc1.Cl` [Example 4, N-[2-(4′-chlor-phenyl)-allyl]-N-methyl-hydrazine Hydrochloride], on recombinant human MAO-B, the IC50 was determined as 175 µM and the “Specificity for SSAO vs. MAO-B” value is on record as 269. For the same molecule, on recombinant human MAO-A, the IC50 is 260 µM and the “Specificity for SSAO vs. MAO-A” value came out at 400. In series [1], this molecule registered an IC50 of 0.65 µM.

As for `C=C(CON)c1ccccc1` (as salt: hydrochloride) [Example 1, O-(2-phenyl-allyl)-hydroxylamine Hydrochloride], the melting point is 101 to 102 °C.

For `COc1ccc2c(c1)c(CC(=O)O)c(C)n2C(=O)c1ccc(Cl)cc1` [indomethacin, reference compound], the “PGE2 levels in paw exudate” value in series [2] is listed as “greater impact”.

For the molecule `C=C(CN(N)CC)c1ccc(Cl)cc1.Cl` [Example 5, N-[2-(4′-Chlorophenyl)-allyl]-N-ethyl-hydrazine Hydrochloride], the melting point is 150 to 151 °C. At recombinant human MAO-B, the IC50 was 155 µM and the “Specificity for SSAO vs. MAO-B” value came out at 163. Also, on recombinant human MAO-A, the IC50 worked out at 690 µM and the “Specificity for SSAO vs. MAO-A” value is listed as 726. The same molecule yielded an IC50 in series [1] of 0.95 µM.
